# Results: patent US4738970A, “Benzimidazolyl-thio-tetrahydroquinolines and anti-peptic ulcer compositions containing the same” (Otsuka Pharmaceutical Co., Ltd., priority 1984, dated 1988)
# How the values were obtained:
# [1] = system: secretion of hydrochloric acid in the stomach; test: Inhibitory Effect Test for the Secretion of Hydrochloric Acid in the Stomach; type: in vivo, Wistar strain male rats; settings: Rattus norvegicus; Wistar male rats, pylorus ligated, histamine dihydrochloride 1 mg/kg/hour stimulated; injected into the duodenum; probit analysis; read-out: ED50 (inhibition of the secretion of hydrochloric acid)
# Procedure: Wistar strain male rats were used as test animals. The test animals were abstained from food for 24 hours, then the pyloric sphincter of the test animal was ligated under anesthetized condition with urethane (1.5 g/kg), and a perfusion cannula for the stomach was inserted into the stomach.
# The stomach was perfused with physiological saline through a peroral catheter, and the quantity of gastric juice secreted was measured by determining the pH and by titrating the total acidity of the perfusate.
# The secretion of gastric juice was accelerated by injecting histamine dihydrochloride as the secretion stimulant in the rate of 1 mg/kg/hour continuously through the femoral vein, then the effect of each of the compounds was tested. Each of the test compounds was dissolved in dimethylformamide, and the predetermined dosage (maximum: 30 mg/kg) of each of the test compounds was administered by injecting the test compound solution into the duodenum.
# Inhibition rate (%) of the secretion of hydrochloric acid was calculated by taking the value of the hydrochloric acid secreted before the administration of each of the test compounds as the reference. ED50 value of each of the test compounds was calculated from the inhibitory rate (%) of each of the test compounds and treated mathematically by probit (probability unit) analysis.
# H^+ -K^+ -ATPase = target: T1, H^+ -K^+ -ATPase (Sus scrofa, UniProt P19156); test: Inhibitory Effect Test for the Activity of H^+ -K^+ -ATPase; type: biochemical; settings: H+-K+-ATPase from the stomach of swine; preincubation pH 6.1, room temperature 30 min; reaction pH 7.4, 37° C. 30 min; read-out: IC50 (50% inhibition dosage)
# T1 construct: which was prepared from the stomach of swine; from tissue; host or cells: stomach of swine
# Procedure: H^+ -K^+ -ATPase (hydrogen-potassium-activated adenosine triphosphatase) (protein content: 10 mcg) which was prepared from the stomach of swine was added to PIPES-tris[buffer PIPES-tris(hydroxymethyl)-2-amino-1,3-propanediol buffer (pH=6.1) containing 2 mM of piperazine-N,N'-bis(2-ethanesulfonic acid)], then the resulting mixture was let allowed to stand at room temperature.
# Each of the test compounds was dissolved in dimethylformamide, and the dimethylformamide solution was added to the above-mentioned H^+ -K^+ -ATPase buffer solution so as to adjust the final concentration of the test compound to 1.0%. Each of thus prepared mixture was reacted at room temperature for 30 minutes.
# Next, the above-mentioned reaction mixture was divided into two portions, and to the one portion thereof was added 1 ml of 75 mM PIPES-tris buffer solution (pH=7.4) (containing 4 mM of MgCl2, 4 mM of Na2 ATP and 20 mM of KCl), on the other hand, to another portion of the reaction mixture was added 1 ml of 75 mM PIPES-tris buffer solution (pH=7.4) (containing 4 mM of MgCl2 and 4 mM of Na2 ATP), respectively. Each of these two series of sample solutions was separately reacted at 37° C. for 30 minutes. Then to each of these reaction mixtures was added 0.3 ml of 40% trichloroacetic acid to terminate the reaction, and was subjected to centrifugal separation at 3,000 rpm for 10 minutes to obtain the supernatent. Next, the inorganic phosphoric acid formed in the reaction mixture was determined by a method according to the article by C. H. Fiske and Y. Subbarow: J. Biol. Chem., Vol. 66, pages 375-400, (1925). The difference of the value obtained by substracting the quantity of inorganic phosphoric acid determined by using PIPES-tris buffer solution without containing 20 mM of KCl from the quantity of inorganic phosphoric acid determined by using PIPES-tris buffer solution containing 20 mM of KCl, was converted into as activity value of enzyme with respect to the unit protein and unit time.
# Inhibitory rate (%) of each of the test compounds was obtained from the activity value of the enzyme at the respective dosages in the test groups and those of obtained from the control group, then IC50 (50% inhibition dosage of each of the test compounds) was calculated from the inhibitory rate (%).
# T1 sequence (P19156 2-1034 limits assumed): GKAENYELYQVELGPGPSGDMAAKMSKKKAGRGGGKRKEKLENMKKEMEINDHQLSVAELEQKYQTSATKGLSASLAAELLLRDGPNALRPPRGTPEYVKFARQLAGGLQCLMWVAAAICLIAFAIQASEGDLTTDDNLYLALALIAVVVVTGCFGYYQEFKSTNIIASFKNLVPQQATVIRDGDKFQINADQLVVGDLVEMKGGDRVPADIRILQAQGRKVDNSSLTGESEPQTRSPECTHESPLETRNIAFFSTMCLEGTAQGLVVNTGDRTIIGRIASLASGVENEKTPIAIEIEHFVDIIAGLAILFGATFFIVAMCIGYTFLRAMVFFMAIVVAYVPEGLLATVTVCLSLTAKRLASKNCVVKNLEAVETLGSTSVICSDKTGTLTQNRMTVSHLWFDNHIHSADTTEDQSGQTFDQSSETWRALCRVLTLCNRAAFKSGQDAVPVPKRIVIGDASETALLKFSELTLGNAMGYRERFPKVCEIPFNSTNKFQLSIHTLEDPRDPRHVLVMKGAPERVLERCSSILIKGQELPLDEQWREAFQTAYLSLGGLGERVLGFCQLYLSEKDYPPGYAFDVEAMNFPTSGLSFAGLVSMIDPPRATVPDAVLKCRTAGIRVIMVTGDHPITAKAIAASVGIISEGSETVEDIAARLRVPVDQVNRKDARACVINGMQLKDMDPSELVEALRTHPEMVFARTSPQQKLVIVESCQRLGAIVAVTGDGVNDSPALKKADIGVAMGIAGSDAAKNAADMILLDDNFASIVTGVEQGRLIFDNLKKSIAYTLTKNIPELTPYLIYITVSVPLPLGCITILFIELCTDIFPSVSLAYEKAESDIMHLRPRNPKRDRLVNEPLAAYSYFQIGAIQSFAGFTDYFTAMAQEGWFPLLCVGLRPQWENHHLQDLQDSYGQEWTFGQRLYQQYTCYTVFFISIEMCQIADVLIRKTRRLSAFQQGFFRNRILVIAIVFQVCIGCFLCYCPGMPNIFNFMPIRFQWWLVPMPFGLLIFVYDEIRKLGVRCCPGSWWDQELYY
# T1 sequence (P18434 whole entry partner): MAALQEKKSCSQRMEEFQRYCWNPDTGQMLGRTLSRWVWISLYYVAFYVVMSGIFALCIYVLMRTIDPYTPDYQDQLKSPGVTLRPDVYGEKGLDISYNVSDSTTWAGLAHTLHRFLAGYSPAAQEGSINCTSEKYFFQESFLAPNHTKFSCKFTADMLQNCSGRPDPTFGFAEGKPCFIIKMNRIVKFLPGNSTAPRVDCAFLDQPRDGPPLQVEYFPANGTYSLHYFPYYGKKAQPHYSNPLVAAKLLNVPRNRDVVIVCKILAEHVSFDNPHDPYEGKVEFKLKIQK
Structure (SMILES),IC50 (H^+ -K^+ -ATPase),ED50 [1]
"[O-][S+](c1nc2ccccc2[nH]1)C1CCCc2cccnc21 (centres unmarked) [Test compound 12, 8-(2-Benzimidazolyl)sulfinyl-5,6,7,8-tetrahydroquinoline]",1200 nM,8.5 mg/kg
"[O-][S+](c1nc2ccc(F)cc2[nH]1)C1CCCc2cccnc21 (centres unmarked) [Test compound 32, 8-(5-Fluoro-2-benzimidazolyl)sulfinyl-5,6,7,8-tetrahydroquinoline]",1700 nM,5.2 mg/kg
"COc1c(C)cnc2c1CCCC2[S+]([O-])c1nc2cc(Cl)c(Cl)cc2[nH]1 (centres unmarked) [Test compound 41, 3-Methyl-4-methoxy-8-(5,6-dichloro-2-benzimidazolyl)sulfinyl-5,6,7,8-tetrahydroquinoline]",99 nM,
"CCOc1cc2[nH]c([S+]([O-])C3CCCc4c3ncc(C)c4OC)nc2cc1F (centres unmarked) [Test compound 42, 3-Methyl-4-methoxy-8-(5-ethoxy-6-fluoro-2-benzimidazolyl)sulfinyl-5,6,7,8-tetrahydroquinoline]",240 nM,
"COc1c(C)cnc(C[S+]([O-])c2nc3nc(Br)ccc3[nH]2)c1C (centres unmarked) [Test compound 45, 5-Bromo-2-[(3,5-dimethyl-4-methoxy-2-pyridyl)methylsulfinyl]imidazo[4,5-b]pyridine]",2340 nM,
"c1ccc(CSc2nc3ncccc3[nH]2)nc1 [Test compound 47, 2-(2-Pyridylmethylthio)imidazo[4,5-b]pyridine, reference compound]",> 100000 nM,
"COc1ccc2nc([S+]([O-])C3CCCc4c3ncc(C)c4OC)[nH]c2c1 (centres unmarked) [Test compound 49, 3-Methyl-4-methoxy-8-(5-methoxy-2-benzimidazolyl)sulfinyl-5,6,7,8-tetrahydroquinoline]",280 nM,
"COc1ccnc2c1CCCC2[S+]([O-])c1nc2ccc(F)cc2[nH]1 (centres unmarked) [Test compound 51, 4-Methoxy-8-(5-fluoro-2-benzimidazolyl)-sulfinyl-5,6,7,8-tetrahydroquinoline]",99 nM,

# The remaining compounds from weak to strong by IC50 (H^+ -K^+ -ATPase), led by results:
IC50 (H^+ -K^+ -ATPase),Structure (SMILES),ED50 [1]
29200 nM,"COc1c(C)cnc(C[S+]([O-])c2nc3cnccc3[nH]2)c1C (centres unmarked) [Test compound 46, 2-[(3,5-Dimethyl-4-methoxy-2-pyridyl)-methylsulfinyl]imidazo[4,5-c]pyridine]",
3700 nM,"COc1ccc2nc([S+]([O-])C3CCCc4cc(C)cnc43)[nH]c2c1 (centres unmarked) [Test compound 26, 3-Methyl-8-(5-methoxy-2-benzimidazolyl)-sulfinyl-5,6,7,8-tetrahydroquinoline]",15.7 mg/kg
1900 nM,"Cc1ccc2nc([S+]([O-])C3CCCc4cccnc43)[nH]c2c1 (centres unmarked) [Test compound 17, 8-(5-Methyl-2-benzimidazolyl)sulfinyl-5,6,7,8-tetrahydroquinoline]",17.2 mg/kg
1900 nM,"Cc1cnc2c(c1)CCCC2[S+]([O-])c1nc2ccc(F)cc2[nH]1 (centres unmarked) [Test compound 40, 3-Methyl-8-(5-fluoro-2-benzimidazolyl)-sulfinyl-5,6,7,8-tetrahydroquinoline]",
1000 nM,"[O-][S+](c1nc2ccc(Cl)cc2[nH]1)C1CCCc2cccnc21 (centres unmarked) [Test compound 20, 8-(5-Chloro-2-benzimidazolyl)sulfinyl-5,6,7,8-tetrahydroquinoline]",4.4 mg/kg
580 nM,"Cc1cnc2c(c1)CCCC2[S+]([O-])c1nc2cc(C)c(C)cc2[nH]1 (centres unmarked) [Test compound 53, 3-Methyl-8-(5,6-dimethyl-2-benzimidazolyl)-sulfinyl-5,6,7,8-tetrahydroquinoline]",
310 nM,"COc1cc2nc([S+]([O-])C3CCCc4c3ncc(C)c4OC)[nH]c2cc1F (centres unmarked) [Test compound 48, 3-Methyl-4-methoxy-8-(5-fluoro-6-methoxy-2-benzimidazolyl)sulfinyl-5,6,7,8-tetrahydroquinoline]",
280 nM,"COc1c(C)cnc2c1CCCC2[S+]([O-])c1nc2cc(F)c(F)cc2[nH]1 (centres unmarked) [Test compound 43, 3-Methyl-4-methoxy-8-(5,6-difluoro-2-benzimidazolyl)sulfinyl-5,6,7,8-tetrahydroquinoline]",
230 nM,"Cc1cnc2c(c1)CCCC2[S+]([O-])c1nc2cc(Cl)c(Cl)cc2[nH]1 (centres unmarked) [Test compound 52, 3-Methyl-8-(5,6-dichloro-2-benzimidazolyl)-sulfinyl-5,6,7,8-tetrahydroquinoline]",
180 nM,"COc1c(C)cnc2c1CCCC2[S+]([O-])c1nc2ccc(Cl)cc2[nH]1 (centres unmarked) [Test compound 50, 3-Methyl-4-methoxy-8-(5-chloro-2-benzimidazolyl)sulfinyl-5,6,7,8-tetrahydroquinoline]",
